Assay [1] deals with T1, RORγt ligand-binding domain (RORγt-LBD) (Homo sapiens, UniProt P51449).
T1 construct: 20 nM recombinantly expressed RORγ-LBD fused to GST
T1 sequence (P51449 269-508 limits assumed): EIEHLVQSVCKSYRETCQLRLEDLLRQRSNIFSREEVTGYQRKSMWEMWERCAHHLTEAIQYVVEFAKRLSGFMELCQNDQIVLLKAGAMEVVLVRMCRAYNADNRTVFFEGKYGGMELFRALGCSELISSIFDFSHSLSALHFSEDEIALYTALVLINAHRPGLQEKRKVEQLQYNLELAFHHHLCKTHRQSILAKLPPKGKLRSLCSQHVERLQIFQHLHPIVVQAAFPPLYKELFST
Description: Time-resolved FRET (TR-FRET) RORγt coactivator assay. The conditions noted are these: GST-RORγ-LBD, biotinylated RIP140 peptide, coactivator displacement. It counts as biochemical. (TR-FRET usually uses a lanthanide donor and a delayed reading to cut background.)

A further assay addresses T2, human RORγt (Homo sapiens, UniProt P51449).
T2 sequence (P51449 1-497 isoform P51449-2): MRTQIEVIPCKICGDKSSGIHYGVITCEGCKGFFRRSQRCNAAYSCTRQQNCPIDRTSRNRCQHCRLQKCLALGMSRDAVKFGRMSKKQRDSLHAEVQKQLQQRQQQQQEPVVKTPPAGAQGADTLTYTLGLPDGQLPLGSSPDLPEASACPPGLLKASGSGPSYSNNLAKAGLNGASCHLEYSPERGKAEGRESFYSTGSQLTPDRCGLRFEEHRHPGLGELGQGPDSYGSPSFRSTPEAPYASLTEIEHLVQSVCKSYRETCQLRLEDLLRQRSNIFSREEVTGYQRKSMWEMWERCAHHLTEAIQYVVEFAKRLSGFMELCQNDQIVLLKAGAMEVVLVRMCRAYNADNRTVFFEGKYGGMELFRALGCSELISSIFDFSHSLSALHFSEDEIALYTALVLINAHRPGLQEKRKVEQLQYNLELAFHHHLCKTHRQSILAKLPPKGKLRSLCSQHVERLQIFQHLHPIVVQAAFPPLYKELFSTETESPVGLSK
Briefly: IL-17 secretion from EL4 murine lymphoma overexpressing human RORγt. It counts as cell-based. More on the design: expressed in transfected cells; host or cells: EL-4 murine lymphoma. The conditions noted are these: IL-17 secretion inhibition, PMA and ionomycin stimulation, 24 h. On the procedure:
Murine EL-4 lymphoma cell line overexpressing human RORγt was used in this functional assay to assess compound ability to inhibit IL-17 cytokine secretion.
EL-4 cells are maintained in a standard culture medium RPMI supplemented with 10% fetal calf serum, 1% sodium pyruvate, 1% essential amino acids and 1% antibiotics at 37° C. in a humidified atmosphere of 5% CO2 and 95% air. Culture medium was changed every 2 days. EL4 cells were transfected with a plasmid encoding hRORγt (sequence identical to published sequence NM 001001523). […] Briefly, 1 μg of DNA/1 million cells was served to transfect EL-4 cells. Cell/DNA suspension was transferred into certified cuvette and the electroporation of RORγt plasmid was carried out using appropriate Nucleofector® program.
Cells were seeded in 96 well plates at a density of 150000 cells/well then treated with compounds of this invention at indicated concentrations and incubated for 24 hours at 37° C. in a humidified atmosphere of 5% CO2 and 95% air. EL-4 cells were pretreated with test compounds (RORγ modulators) and stimulated with PMA (10 ng/mL) and ionomycin (1 μM final concentration) in the presence of test compound concentrations for additional 24 h at 37° C. in a humidified atmosphere of 5% CO2 and 95% air. Subsequently, supernatants were collected (after centrifugation at 300 g for 10 minutes) to determine the concentrations of IL-17 by HTRF (CisBio, France) or ELISA (R&D Systems Europe) according to the manufacturer's protocols.

pIC50: −log10 of the molar value.

`CC(C)(C)OC(=O)CCc1c[nH]c2ccc(CC(=O)NC(c3ccccc3)c3ccc(C#N)cc3N3CCCC3)cc12` (centres unmarked) [Cpd. 59, tert-butyl 3-{5-[({[4-cyano-2-(pyrrolidin-1-yl)phenyl](phenyl)methyl}carbamoyl)methyl]-1H-indol-3-yl}propanoate]: the pIC50 (usually −log10 of the IC50, conventionally taken in molar units) is > 6.00 in assay [1] and 5.00 to 6.00 at human RORγt.
With `COc1ccc(C(NC(=O)Cc2ccc3[nH]cc(CCC(=O)OC(C)(C)C)c3c2)c2ccccc2)c(N2CCCC2)c1` (centres unmarked) [Cpd. 108, tert-butyl 3-{5-[({[4-methoxy-2-(pyrrolidin-1-yl)phenyl](phenyl)methyl}carbamoyl)methyl]-1H-indol-3-yl}propanoate], the pIC50 (in assay [1]; at human RORγt) was > 6.00 throughout.
Take `O=C(O)CCc1c[nH]c2ccc(CC(=O)NC(c3ccccc3)c3cc(Br)ccc3N3CCCC3)cc12` (centres unmarked) [compound 117, 3-{5-[({[5-bromo-2-(pyrrolidin-1-yl)phenyl](phenyl)methyl}carbamoyl)methyl]-1H-indol-3-yl}propanoic acid]: the pIC50 in assay [1] was > 6.00; at human RORγt, 4.52 to 5.00.
As for `Cc1ccc(C(NC(=O)Cc2ccc3[nH]cc(CC(=O)O)c3c2)c2ccccc2)c(N2CCCC2)c1` (centres unmarked) [compound 65, 2-{5-[({[4-methyl-2-(pyrrolidin-1-yl)phenyl](phenyl)methyl}carbamoyl)methyl]-1H-indol-3-yl}acetic acid], the pIC50 was > 6.00 in assay [1] and 5.00 to 6.00 at human RORγt.
As to `Cc1ccc(C(NC(=O)Cc2ccc3[nH]cc(CCC(=O)OC(C)(C)C)c3c2)c2ccccc2)c(N2CCCCC2)c1` (centres unmarked) [Cpd. 76, tert-butyl 3-{5-[({[4-methyl-2-(piperidin-1-yl)phenyl](phenyl)methyl}carbamoyl)methyl]-1H-indol-3-yl}propanoate], the pIC50 in assay [1] was > 6.00; against human RORγt, 5.00 to 6.00.
For `CCOC(=O)CCCc1c[nH]c2ccc(CC(=O)NC(c3ccccc3)c3ccccc3N3CCCCC3)cc12` (centres unmarked) [Cpd. 211, ethyl 4-{5-[({phenyl[2-(piperidin-1-yl)phenyl]methyl}carbamoyl)methyl]-1H-indol-3-yl}butanoate] the same measures were > 6.00 and 5.00 to 6.00.
Consider `COc1ccc(C(NC(=O)Cc2ccc3[nH]cc(CCC(=O)OC(C)(C)C)c3c2)c2ccccc2)c(C)c1` (centres unmarked) [Cpd. 82, tert-butyl 3-[5-({[(4-methoxy-2-methylphenyl)(phenyl)methyl]carbamoyl}methyl)-1H-indol-3-yl]propanoate], for which the results for the pIC50 (in assay [1]; against human RORγt) were > 6.00 and 5.00 to 6.00, respectively.
For the molecule `O=C(O)CCc1c[nH]c2ccc(CC(=O)NC(c3ccccc3)c3ccc(Cl)cc3N3CCCC3)cc12` (centres unmarked) [compound 91, 3-{5-[({[4-chloro-2-(pyrrolidin-1-yl)phenyl](phenyl)methyl}carbamoyl)methyl]-1H-indol-3-yl}propanoic acid], the pIC50 in assay [1] is > 6.00; against human RORγt, 5.00 to 6.00.
In the case of `COc1cc(C)ccc1C(NC(=O)Cc1ccc2[nH]cc(CCC(=O)OC(C)(C)C)c2c1)c1ccccc1` (centres unmarked) [Cpd. 98, tert-butyl 3-[5-({[(2-methoxy-4-methylphenyl)(phenyl)methyl]carbamoyl}methyl)-1H-indol-3-yl]propanoate], the results for the pIC50 (in assay [1]; on human RORγt) were > 6.00 and 5.00 to 6.00, respectively.
Take `O=C(O)CCc1c[nH]c2ccc(CC(=O)NC(c3ccccc3)c3cc(Cl)ccc3N3CCCCC3)cc12` (centres unmarked) [compound 62, 3-{5-[({[5-chloro-2-(piperidin-1-yl)phenyl](phenyl)methyl}carbamoyl)methyl]-1H-indol-3-yl}propanoic acid]: the results for the pIC50 (in assay [1]; at human RORγt) were > 6.00 and 5.00 to 6.00, respectively.
For `CC(C)(C)OC(=O)CCc1c[nH]c2ccc(CC(=O)NC(c3ccccc3)c3ccc(C(F)(F)F)cc3N3CCCC3)cc12` (centres unmarked) [Cpd. 47, tert-butyl 3-{5-[({phenyl[2-(pyrrolidin-1-yl)-4-(trifluoromethyl)phenyl]methyl}carbamoyl)methyl]-1H-indol-3-yl}propanoate] the same measures were 5.00 to 6.00 and 5.00 to 6.00.
As for `Cc1ccc(C(NC(=O)Cc2ccc3[nH]cc(CCC(=O)OC(C)(C)C)c3c2)c2ccccc2)c(NC(C)C)c1` (centres unmarked) [Cpd. 125, tert-butyl 3-(5-{[({4-methyl-2-[(propan-2-yl)amino]phenyl}(phenyl)methyl)carbamoyl]methyl}-1H-indol-3-yl)propanoate], the results for the pIC50 (in assay [1]; on human RORγt) were > 6.00 and 5.00 to 6.00, respectively.
As to `CCOC(=O)CCc1n[nH]c2ccc(CC(=O)NC(c3ccccc3)c3ccc(C)cc3OC(C)C)cc12` (centres unmarked) [Cpd. 159, ethyl 3-{5-[({[4-methyl-2-(propan-2-yloxy)phenyl](phenyl)methyl}carbamoyl)methyl]-1H-indazol-3-yl}propanoate], the pIC50 in assay [1] was > 6.00; at human RORγt, 5.00 to 6.00.
The matching figures for `COc1ccc(C(NC(=O)Cc2ccc3[nH]cc(CCC(=O)OC(C)(C)C)c3c2)c2ccccc2)c(N2CCCCCC2)c1` (centres unmarked) [Cpd. 141, tert-butyl 3-{5-[({[2-(azepan-1-yl)-4-methoxyphenyl](phenyl)methyl}carbamoyl)methyl]-1H-indol-3-yl}propanoate]: > 6.00 and 5.00 to 6.00.
Take `Cc1ccc(C(NC(=O)Cc2ccc3[nH]cc(CCC(=O)O)c3c2)c2ccccc2)c(OC(C)C)c1` (centres unmarked) [compound 146, 3-{5-[({[4-methyl-2-(propan-2-yloxy)phenyl](phenyl)methyl}carbamoyl)methyl]-1H-indol-3-yl}propanoic acid]: the figures for the pIC50 (in assay [1]; on human RORγt) were > 6.00 and 5.00 to 6.00, respectively.
With `COC(=O)Cc1c[nH]c2ccc(CC(=O)NC(c3ccccc3)c3ccc(C)cc3N3CCCC3)cc12` (centres unmarked) [Cpd. 64, methyl 2-{5-[({[4-methyl-2-(pyrrolidin-1-yl)phenyl](phenyl)methyl}carbamoyl)methyl]-1H-indol-3-yl}acetate], the pIC50 (in assay [1]; on human RORγt) was > 6.00 each time.
For the molecule `Cc1ccc(C(NC(=O)Cc2ccc3[nH]cc(CCC(=O)OC(C)(C)C)c3c2)c2ccccc2)c(N2CCCCCC2)c1` (centres unmarked) [Cpd. 250, tert-butyl 3-{5-[({[2-(azepan-1-yl)-4-methylphenyl](phenyl)methyl}carbamoyl)methyl]-1H-indol-3-yl}propanoate], the pIC50 in assay [1] is > 6.00.
Regarding `N#Cc1ccc(C(NC(=O)Cc2ccc3[nH]cc(CCC(=O)O)c3c2)c2ccccc2)c(N2CCCC2)c1` (centres unmarked) [Cpd. 60, 3-{5-[({[4-cyano-2-(pyrrolidin-1-yl)phenyl](phenyl)methyl}carbamoyl)methyl]-1H-indol-3-yl}propanoic acid], the pIC50 in assay [1] is > 6.00.
Turning to `COC(=O)Cc1c[nH]c2ccc(CC(=O)NC(c3ccccc3)c3ccccc3N3CCCCC3)cc12` (centres unmarked) [Cpd. 40, methyl 2-{5-[({phenyl[2-(piperidin-1-yl)phenyl]methyl}carbamoyl)methyl]-1H-indol-3-yl}acetate], the pIC50 in assay [1] was > 6.00.
On the same count and under the same terms, with `Cc1ccc(C(NC(=O)Cc2ccc3[nH]cc(CCC(=O)OC(C)(C)C)c3c2)c2ccc(C)s2)c(C)c1` (centres unmarked) [Cpd. 100, tert-butyl 3-[5-({[(2,4-dimethylphenyl)(5-methylthiophen-2-yl)methyl]carbamoyl}methyl)-1H-indol-3-yl]propanoate] the figure was 5.00 to 6.00; with `O=C(O)CCc1c[nH]c2ccc(CC(=O)NC(c3ccccc3)c3cccc4cc[nH]c34)cc12` (centres unmarked) [compound 168, 3-[5-({[1H-indol-7-yl(phenyl)methyl]carbamoyl}methyl)-1H-indol-3-yl]propanoic acid], 5.00 to 6.00; with `COc1ccc(N2CCCCC2)c(C(NC(=O)Cc2ccc3[nH]cc(CCC(=O)OC(C)(C)C)c3c2)c2ccccc2)c1` (centres unmarked) [Cpd. 135, tert-butyl 3-{5-[({[5-methoxy-2-(piperidin-1-yl)phenyl](phenyl)methyl}carbamoyl)methyl]-1H-indol-3-yl}propanoate], 5.00 to 6.00.

(Values after patent publication US9902725B2, “Heterocyclic derivatives as RORgamma modulators” (GENFIT, priority 2014, dated 2018).)
